Reference: US20220235051A1, “DI-FLUORO AZEPANES AS HBV CAPSID ASSEMBLY MODULATORS” (priority 2019, published 2022)

Test system: HBV
Assay: HBV replication inhibition assay (BDNA assay) in HepG2.2.15 cells
Format: cell-based
Conditions: Hepatitis B virus, HepG2.2.15, 144 h, HepG2.2.15 cells, BDNA assay, encapsidated HBV DNA in supernatant at day 6; read-out: HepG2.2.15 EC50 HBV DNA
Experimental: HBV replication inhibition by the disclosed compounds were determined in cells infected or transfected with HBV or cells with stably integrated HBV, such as HepG2.2.15 cells (Sells et al. 1987). In this example, HepG2.2.15 cells were maintained in cell culture medium containing 10% fetal bovine serum (FBS), Geneticin, L-glutamine, penicillin and streptomycin. HepG2.2.15 cells were seeded in 96-well plates at a density of 40,000 cells/well and were treated with serially diluted compounds at a final DMSO concentration of 0.5% either alone or in combination by adding drugs in a checker box format. Cells were incubated with compounds for three days, after which medium was removed and fresh medium containing compounds was added to cells and incubated for another three days. At day 6, supernatant was removed and treated with DNase at 37° C. for 60 minutes, followed by enzyme inactivation at 75° C. for 15 minutes. Encapsidated HBV DNA was released from the virions and covalently linked HBV polymerase by incubating in lysis buffer (Affymetrix QS0010) containing 2.5 μg proteinase K at 50° C. for 40 minutes. HBV DNA was denatured by addition of 0.2 M NaOH and detected using a branched DNA (BDNA) QuantiGene assay kit according to manufacturer recommendation (Affymetrix). HBV DNA levels were also quantified using qPCR, based on amplification of encapsidated HBV DNA extraction with QuickExtraction Solution (Epicentre Biotechnologies) and amplification of HBV DNA using HBV specific PCR probes that can hybridize to HBV DNA and a fluorescently labeled probe for quantitation. In addition, cell viability of HepG2.2.15 cells incubated with test compounds alone or in combination was determined by using CellTitre-Glo reagent according to the manufacturer protocol (Promega). The mean background signal from wells containing only culture medium was subtracted from all other samples, and percent inhibition at each compound concentration was calculated by normalizing to signals from HepG2.2.15 cells treated with 0.5% DMSO using equation E1.
% inhibition=(DMSOave−Xi)/DMSOave×100% E1
where DMSOave is the mean signal calculated from the wells that were treated with DMSO control (0% inhibition control) and Xi is the signal measured from the individual wells. EC50 values, effective concentrations that achieved 50% inhibitory effect, were determined by non-linear fitting using Graphpad Prism software (San Diego, Calif.) and equation E2.
Y=Ymin+(Ymax−Ymin)/(1+10(Log EC50−X)×HillSlope) E2
where Y represents percent inhibition values and X represents the logarithm of compound concentrations.
Selected disclosed compounds were assayed in the HBV replication assay (BDNA assay), as described above, and a representative group of these active compounds is shown in Table 3.

Row | SMILES | EC50
1 | C[C@@H]1Cc2nn3c(c2CN1C(=O)Nc1ccnc(Br)c1F)C(F)(F)CC[C@@H](O)C3 [Example 68, (3R,8R)-N-(2-Bromo-3-fluoropyridin-4-yl)-11,11-di fluoro-8-hydroxy-3-methyl-3,4,8,9,10,11-hexahydro-1H-pyrido[4′,3′:3,4]pyrazolo[1,5-a]azepine-2(7H)-carboxamide] | 21 nM
2 | C=C1CCC(F)(F)c2c3c(nn2C1)CCN(C(=O)Nc1ccc(F)c(C(F)(F)F)c1)C3 [Example 2, 11,11-Difluoro-N-(4-fluoro-3-(trifluoromethyl)phenyl)-8-methylene-3,4,8,9,10,11-hexahydro-1H-pyrido[4′,3′:3,4]pyrazolo[1,5-a]azepine-2(7H)-carboxamide] | 51 nM
3 | C[C@@H]1Cc2nn3c(c2CN1C(=O)Nc1ccnc(Br)c1F)C(F)(F)CCC(O)(CF)C3 (single isomer, unassigned) [Example 84, (3R,8R*)-N-(2-Bromo-3-fluoropyridin-4-yl)-11,11-difluoro-8-(fluoromethyl)-8-hydroxy-3-methyl-3,4,8,9,10,11-hexahydro-1H-pyrido[4′,3′:3,4]pyrazolo[1,5-a]azepine-2(7H)-carboxamide] | 69 nM
4 | O=C(Nc1ccnc(Br)c1F)N1CCc2nn3c(c2C1)C(F)(F)CC[C@@H](O)C3 [Example 10, (R)-N-(2-Bromo-3-fluoropyridin-4-yl)-11,11-difluoro-8-hydroxy-3,4,8,9,10,11-hexahydro-1H-pyrido[4′,3′:3,4]pyrazolo[1,5-a]azepine-2(7H)-carboxamide] | 32 nM
5 | C#C[C@]1(O)CCC(F)(F)c2c3c(nn2C1)C[C@@H](C)N(C(=O)Nc1ccnc(C(F)F)c1F)C3 (relative stereo) [Example 100, (3R,8S*)-N-(2-Difluoromethyl)-3-fluoropyridin-4-yl)-8-ethynyl-11,11-difluoro-8-hydroxy-3-methyl-3,4,8,9,10,11-hexahydro-1H-pyrido[4′,3′:3,4]pyrazolo[1,5-a]azepine-2(7H)-carboxamide] | 168 nM
6 | N#Cc1cc(NC(=O)N2CCc3nn4c(c3C2)C(F)(F)CC[C@H](OCC(F)F)C4)ccc1F [Example 13, (S)-N-(3-Cyano-4-fluorophenyl)-8-(2,2-difluoroethoxy)-11,11-difluoro-3,4,8,9,10,11-hexahydro-1H-pyrido[4′,3′:3,4]pyrazolo[1,5-a]azepine-2(7H)-carboxamide] | 42 nM
7 | C[C@@H]1Cc2nn3c(c2CN1C(=O)Nc1ccnc(Br)c1F)C(F)(F)CC[C@H](O)C3 [Example 72, (3R,8S)-N-(2-Bromo-3-fluoropyridin-4-yl)-11,11-difluoro-8-hydroxy-3-methyl-3,4,8,9,10,11-hexahydro-1H-pyrido[4′,3′:3,4]pyrazolo[1,5-a]azepine-2(7H)-carboxamide] | 9 nM
8 | C[C@@H]1Cc2nn3c(c2CN1C(=O)Nc1ccc(F)c(C#N)c1)C(F)(F)C[C@@H](CO)CC3 (relative stereo) [Example 132] | 7 nM
9 | COC(=O)NCC1CCC(F)(F)c2c3c(nn2C1)CCN(C(=O)Nc1ccnc(Br)c1F)C3 (stereo not drawn) [Example 54, Methyl ((2-((2-bromo-3-fluoropyridin-4-yl)carbamoyl)-11,11-difluoro-2,3,4,7,8,9,10,11-octahydro-1H-pyrido[4′,3′:3,4]pyrazolo[1,5-a]azepin-8-yl)methyl)-carbamate] | 8 nM
